Measured values taken from US10765732B2, “Compounds and methods for affecting cytokines” (Zivo Bioscience, Inc., priority 2013, dated 2020).

Key:
Assay type in all cases: cell-based, human
[1] = tested on: GM-CSF; assay: ELISA of GM-CSF secretion by cultured PBMC; details: PMA (with ionomycin) alone
Protocol: (§1) According to this exemplary embodiment, phyto-percolate and the flow-through/F4 were tested as they appeared in their original concentrations right off the columns, only diluted 1:20 and 1:100 as described herein. The culture of peripheral blood mononuclear cells (“PBMC”) is prepared from two vials of frozen PBMCs that were obtained from normal healthy human subjects by a commercial vendor, and were added to 2×10 ml medium and centrifuged. PBMCs were resuspended and cultured in RPMI1640/5% FBS for 24 h. (1 vial of frozen cells in 11 ml medium).
(§2) Treatment agents for this exemplary method comprise three agents: unseparated phyto-percolate (‘PAZ’), fraction 3 (‘F3’), fraction 4 (‘F4’). Treatment concentration for each was 1:20 and 1:100. […]
(§3) According to this exemplary embodiment, seeding, treatment, and detection are accomplished by the following steps. Two dishes of PBMCs were combined and the small amount of PBMCs was stained with 0.4% Trypan blue and the cell number of PBMCs was counted using known techniques.
(§4) In this embodiment, an enzyme linked immune-sorbent assay (“ELISA”) analysis of inflammatory cytokine secretion, (a protocol provided in a commercial kit for the parallel quantification of the production of human cytokines), was employed. […]

[2] = tested on: TNF-α; assay: ELISA of TNF-α secretion by cultured PBMC; details: PMA (with ionomycin) alone
Protocol: as §1, §2, §3, §4

[3] = tested on: IL-17A; assay: ELISA of IL-17A secretion by cultured PBMC; details: PMA (with ionomycin) alone
Protocol: as §1, §2, §3, §4

[4] = tested on: IFN-γ; assay: ELISA of IFN-γ secretion by cultured PBMC; details: PMA (with ionomycin) alone
Protocol: as §1, §2, §3, §4

[5] = tested on: IL-2; assay: ELISA of IL-2 secretion by cultured PBMC; details: PMA (with ionomycin) alone
Protocol: as §1, §2, §3, §4

[6] = tested on: NF-κB; assay: Electrophoretic mobility shift assay (EMSA) of NF-κB DNA-binding activity in nuclear protein of cultured PBMC; details: TNF-α (50 ng/ml) added alone 1 h before harvesting, untreated control = 1.0
Protocol: as §1
Treatment agents for this exemplary method comprise three agents: unseparated phyto-percolate (‘PAZ’), fraction 3 (‘F3’), fraction 4 (‘F4’). Treatment concentration for each was 1:20 and 1:100. An exemplary sample preparation method for each agent by dilution is as follows: First, a 1:10 dilution is prepared by combining 0.7 ml agent (PAZ, F3, or F4)+6.3 ml RPMI1640/5% FBS to obtain a total volume of 7 ml of a 1:10 solution. […]
Analysis of the effect of phyto-percolate or fractions isolated therefrom on the DNA-binding activity of NF-κB in the nuclear protein fractions of the cultured PBMC was determined as follows in this exemplary embodiment: approximately 18.26 mL of suspended PBMC were added to approximately 18 mL of culture medium and 2 mL of this cell suspension (2,718,000 cells in 2 mL) were seeded into each 60 mm culture dish. […]

| Compound | production and secretion of GM-CSF [1] | production and secretion of TNF-α [2] | production and secretion of IL-17A [3] | IFN-γ secreted [4] | quantity of IL-2 produced [5] | DNA-binding activity of NF-κB (relative level) [6] |
| --- | --- | --- | --- | --- | --- | --- |
| CCCCCCCCCCCCCC(=O)O[C@@H]1[C@@H](C)[C@@]2(O)[C@@H](C=C(CO)C[C@]3(O)C(=O)C(C)=C[C@@H]23)[C@@H]2C(C)(C)[C@]12OC(C)=O [PMA, phorbol myristate acetate] | approximately 50 pg/100,000 cells | approximately 50 pg/100,000 cells | approximately 3 pg/100,000 cells | approximately 70 pg/100,000 cells | approximately 125 pg/100,000 cells |  |
| TNF-α |  |  |  |  |  | ~2.0 relative unit |
